In patent US9205161B2, “Disinfecting composition comprising a chloramine bleaching agent for removable dental appliances” (LMA Solutions, Inc., priority 2014, dated 2015):

System: BL21 E. coli cells
Assay: Bacterial kill after contact in LB broth, plating on LB agar
Type: cell-based
Details: 15 min exposure at 37° C.; for % Reduction Product / CFU/ml Product / Log reduction Product: MES 25 μM, NaDCC 0.9 mg/ml
Experimental: A working suspension of BL21 E. coli cells in LB broth (1.16×10^8 CFU/ml) was contacted for 15 min at 37° C. with either 1×PBS buffer (control), 2-(N-morpholino)ethanesulfonic acid (“MES”) (final conc. of 25 μM or 0.0049 mg/ml), Sodium Dichloroisocyanurate (“NaDCC”) (final conc. of 0.9 mg/ml), or MES (final conc. of 25 μM or 0.0049 mg/ml)+NaDCC (final conc. of 0.9 mg/ml). Lysogeny broth (LB), a nutritionally rich medium, is primarily used for the growth of bacteria.
After contact, ten-fold serial dilutions from 1:10 to 1:10^6 were prepared using D/E neutralizing broth and an aliquot at each dilution (100 μl) was plated onto an LB agar plate and incubated for 20 hours at 37° C.
The plate shown in FIG. 1A corresponds to treatments with MES-only at a plating dilution of 1:1×10^4. The plate shown in FIG. 1B corresponds to treatments with NaDCC-only at a plating dilution of 1:10. The plate shown FIG. 1C corresponds to treatment with MES+NaDCC at plating dilution of 1:10.

Question: Which “Plate count (CFU)” value (plate dilution 1:1.0E+05, 100 ul plated) does the source give for `O=S(=O)(O)CCN1CCOCC1` [MES only, 2-(N-morpholino)ethanesulfonic acid] here?
Answer: 128 CFU

Question: And the “% Reduction Product” value?
Answer: −10.3448%

Question: And the “CFU/ml Product” value?
Answer: 1.28E+08 CFU/ml

Question: And the “Log reduction Product” value?
Answer: −0.04

Question: `O=c1nc([O-])n(Cl)c(=O)n1Cl.[Na+]` [NaDCC only, Sodium Dichloroisocyanurate] was tested. Which “Plate count (CFU)” value (plate dilution 1:1.0E+01, 100 ul plated) did it give?
Answer: 331 CFU

Question: What about the “% Reduction Product” value of the same compound?
Answer: 99.9715%

Question: What about the “CFU/ml Product” value of the same compound?
Answer: 3.31E+04 CFU/ml

Question: And the “Log reduction Product” value?
Answer: 3.54
